Data taken from patent US6919299B2, “Synergistic herbicidal compositions” (Bayer CropScience GmbH, priority 2001, dated 2005).

Legend:
Format in all cases: in vivo
Echinocloa crus galli = assay: Outdoor post-emergence herbicidal trial, ECHCG; conditions: outdoors
Procedure: (§1) Outdoors, crop plants were grown on plots of a size of from 5 to 10 m^2 on various soils and under various climatic conditions, and the natural presence of harmful plants and/or their seeds in the soil was utilized for the experiments. The treatment with the compositions according to the invention or the herbicides A and B applied individually was carried out after emergence of the harmful and the crop plants, in general at the 2- to 4-leaf stage. The active compounds or active compound combinations, formulated as WG, WP or EC, were applied by the post-emergence method. After 2 to 8 weeks, visual evaluation was carried out in comparison with an untreated comparative group. […] In addition, the herbicidal activities of the compositions according to the invention exceed the expected values according to Colby.
(§2) If the observed activity values of the mixtures already exceed the formal sum of the values for the trials with individual applications, they also exceed the expected value according to Colby which is calculated using the following formula (cf. S. R. Colby; in Weeds 15 (1967) pp. 20 to 22): E=A+B−(A×B/100)
(§3) The figures denote: • A, B=Activity of components A and B in percent, at a dosage of a and b gram of ai/ha, respectively. • E=Expected value in % at a dosage of a+b gram of ai/ha.

Abutilon theophrasti = assay: Outdoor post-emergence herbicidal trial, ABUTH; conditions: outdoors
Procedure: as §1, §2, §3

Sorghum halepense = assay: Outdoor post-emergence herbicidal trial, SORHA; conditions: Example B.VII, outdoors
Procedure: as §1, §2, §3

Portulaca oleracea = assay: Outdoor post-emergence herbicidal trial, POROL; conditions: Example B.VI, outdoors
Procedure: as §1, §2, §3

Polygonum convolvulus = assay: Outdoor post-emergence herbicidal trial, POLCO; conditions: Example B.V, outdoors
Procedure: as §1, §2, §3

Setaria faberi = assay: Outdoor post-emergence herbicidal trial, SETFA; conditions: Example B.II, outdoors
Procedure: as §1, §2, §3

Matricaria spec = assay: Outdoor post-emergence herbicidal trial, MATCH; conditions: Example B.V, outdoors
Procedure: as §1, §2, §3

Brassica napus = assay: Outdoor post-emergence herbicidal trial, BRAPP; conditions: Example B.II, outdoors
Procedure: as §1, §2, §3

Amaranthus retroflexus = assay: Outdoor post-emergence herbicidal trial, AMARE; conditions: Example B.VI, outdoors
Procedure: as §1, §2, §3

Papaver rhoeas = assay: Outdoor post-emergence herbicidal trial, PAPRH; conditions: Example B.I, outdoors
Procedure: as §1, §2, §3

Galium aparine = assay: Outdoor post-emergence herbicidal trial, GALAP; conditions: Example B.I, outdoors
Procedure: as §1, §2, §3

Digitaria sanguinalis = assay: Outdoor post-emergence herbicidal trial, DIGSA; conditions: Example B.VII, outdoors
Procedure: as §1, §2, §3

[1] = Example B.III, B2.2 840 g ai/ha

CS(=O)(=O)c1ccc(C(=O)C2C(=O)CCCC2=O)c(Cl)c1COCC(F)(F)F [Component A, 2-[2-chloro-3-(2,2,2-trifluoroethoxymethyl)-4-methylsulfonylbenzoyl]cyclohexane-1,3-dione]
found (herbicidal activity) (Echinocloa crus galli; Example B.III, A 100 g ai/ha): 98%
found (herbicidal activity) (Echinocloa crus galli; Example B.IV, A 100 g ai/ha): 98%
found (herbicidal activity) (Abutilon theophrasti; Example B.III, A 100 g ai/ha): 75%
found (herbicidal activity) (Abutilon theophrasti; Example B.IV, A 100 g ai/ha): 75%
found (herbicidal activity) (Sorghum halepense; A 75 g ai/ha): 50%
found (herbicidal activity) (Portulaca oleracea; A 75 g ai/ha): 50%
found (herbicidal activity) (Polygonum convolvulus; A 38 g ai/ha): 50%
found (herbicidal activity) (Setaria faberi; A 100 g ai/ha): 65%
found (herbicidal activity) (Matricaria spec; A 38 g ai/ha): 45%
found (herbicidal activity) (Brassica napus; A 100 g ai/ha): 68%
found (herbicidal activity) (Amaranthus retroflexus; A 75 g ai/ha): 90%
found (herbicidal activity) (Papaver rhoeas; A 75 g ai/ha): 0%
found (herbicidal activity) (Galium aparine; A 75 g ai/ha): 50%
found (herbicidal activity) (Digitaria sanguinalis; A 75 g ai/ha): 46%

COc1cc(OC)nc(NC(=O)NS(=O)(=O)c2ncccc2C(=O)N(C)C)n1 [Component B1.9, nicosulfuron]
found (herbicidal activity) (Sorghum halepense; B1.9 40 g ai/ha): 62%
found (herbicidal activity) (Portulaca oleracea; B1.9 40 g ai/ha): 0%
found (herbicidal activity) (Amaranthus retroflexus; B1.9 40 g ai/ha): 90%
found (herbicidal activity) (Digitaria sanguinalis; B1.9 40 g ai/ha): 50%

CCNc1nc(Cl)nc(NC(C)C)n1 [Component B2.2, atrazine]
found (herbicidal activity) (Echinocloa crus galli; [1]): 0%
found (herbicidal activity) (Echinocloa crus galli; Example B.IV, B2.2 840 g ai/ha): 0%
found (herbicidal activity) (Abutilon theophrasti; [1]): 20%
found (herbicidal activity) (Abutilon theophrasti; Example B.IV, B2.2 840 g ai/ha): 20%
found (herbicidal activity) (Setaria faberi; B2.2 840 g ai/ha): 5%
found (herbicidal activity) (Brassica napus; B2.2 840 g ai/ha): 0%
found (herbicidal activity) (Papaver rhoeas; B2.2 200 g ai/ha): 60%
found (herbicidal activity) (Galium aparine; B2.2 200 g ai/ha): 30%

N#Cc1cc(Br)c(O)c(Br)c1 [Component B2.3, bromoxynil]
found (herbicidal activity) (Polygonum convolvulus; B2.3 100 g ai/ha): 45%
found (herbicidal activity) (Matricaria spec; B2.3 100 g ai/ha): 55%
